Tests used:
OF1 mice = experiment: maximal electroshock test (MES Test); type: in vivo, mouse; conditions: p.o.; for MES-Test (1 h, po) ED50: pre-treatment time 1 h
Procedure: Compounds of the invention were tested in OF1 mice using the maximal electroshock test (MES Test) described in detail by Schmutz et al., Naunyn-Schmiedeberg's Arch Pharmacol 1990, 342, 61-66. Briefly, generalized tonic-clonic convulsions of the hind extremities were induced by passing electrical current through temporal electrodes (50 Hz, 18 mA, 0.2 s). […] 30 mg/kg carbamazepine was used as a positive control; mice were classified as protected by a compound If the duration of the seizure lasted only 3 second or less. Five mice were used for each treatment condition and the percentage of protected mice was used as readout (i.e. a compound could give 0%, 20%, 40%, 60%, 80% or 100% protection). […]
ED50 values (ED: effective dose) were calculated using GraphPad Prism, v4.02.

mouse = experiment: Oral bioavailability: in vivo orally active (audiogenic mouse test and/or MES test)
Procedure: The oral bioavailability was tested using the audiogenic mouse test (Audiogenic seizures, R. L. Collins; Chapter 14, pages: 347-372. In: Experimental Models of Epilepsy; By: Pupura, Penry, Tower, Woodbury, Walter, Raven Press, New York, 1972. Standard Book Number: 0-911216-26-X) and/or the MES test.

Row | Structure (SMILES) | In vivo orally active (mouse) | other results
1 | CS(=O)(=O)Nn1c(=O)[nH]c2cc(C(F)(F)F)c(C3CCCO3)cc2c1=O [B-2 (R), N-[2,4-Dioxo-6-(tetrahydro-furan-2-yl)-7-trifluoromethyl-1,4-dihydro-2H-quinazolin-3-yl]-methanesulfonamide] | – | MES-Test (1 h, po) ED50 (OF1 mice): 12.8 mg/kg
2 | CS(=O)(=O)Nn1c(=O)[nH]c2cc(C(F)(F)F)c(C3CCCO3)cc2c1=O [B-2 (S), N-[2,4-Dioxo-6-(tetrahydro-furan-2-yl)-7-trifluoromethyl-1,4-dihydro-2H-quinazolin-3-yl]-methanesulfonamide] | – | MES-Test (1 h, po) ED50 (OF1 mice): 33.2 mg/kg
3 | CC(O)c1cc2c(=O)n(NS(C)(=O)=O)c(=O)[nH]c2cc1C(F)(F)F (stereo not drawn) [Compound A-1, N-[6-(1-Hydroxy-ethyl)-2,4-dioxo-7-trifluoromethyl-1,4-dihydro-2H-quinazolin-3-yl]-methanesulfonamide] | Yes | –
4 | COC(C)c1cc2c(=O)n(NS(C)(=O)=O)c(=O)[nH]c2cc1C(F)(F)F (stereo not drawn) [Compound A-2, N-[6-(1-Methoxy-ethyl)-2,4-dioxo-7-trifluoromethyl-1,4-dihydro-2H-quinazolin-3-yl]-methanesulfonamide] | Yes | –
5 | CCC(O)c1cc2c(=O)n(NS(C)(=O)=O)c(=O)[nH]c2cc1C(F)(F)F (stereo not drawn) [Compound A-3, N-[6-(1-Hydroxy-propyl)-2,4-dioxo-7-trifluoromethyl-1,4-dihydro-2H-quinazolin-3-yl]-methanesulfonamide] | Yes | –
6 | CC(C)OC(C)c1cc2c(=O)n(NS(C)(=O)=O)c(=O)[nH]c2cc1C(F)(F)F (stereo not drawn) [Compound A-4, N-[6-(1-Isopropoxy-ethyl)-2,4-dioxo-7-trifluoromethyl-1,4-dihydro-2H-quinazolin-3-yl]-methanesulfonamide] | Yes | –
7 | CCOC(C)c1cc2c(=O)n(NS(C)(=O)=O)c(=O)[nH]c2cc1C(F)(F)F (stereo not drawn) [Compound A-5, N-[6-(1-Ethoxy-ethyl)-2,4-dioxo-7-trifluoromethyl-1,4-dihydro-2H-quinazolin-3-yl]methanesulfonamide] | yes | –
8 | CCCOC(CC)c1cc2c(=O)n(NS(C)(=O)=O)c(=O)[nH]c2cc1C(F)(F)F (stereo not drawn) [Compound A-6, N-[2,4-Dioxo-6-(1-propoxy-propyl)-7-trifluoromethyl-1,4-dihydro-2H-quinazolin-3-yl]-methanesulfonamide] | Yes | –
9 | CCC(OC(C)C)c1cc2c(=O)n(NS(C)(=O)=O)c(=O)[nH]c2cc1C(F)(F)F (stereo not drawn) [Compound A-7, N-[6-(1-isopropoxy-propyl)-2,4-dioxo-7-trifluoromethyl-1,4-dihydro-2H-quinazolin-3-yl]-methanesulfonamide] | Yes | –
10 | CCOC(CC)c1cc2c(=O)n(NS(C)(=O)=O)c(=O)[nH]c2cc1C(F)(F)F (stereo not drawn) [Compound A-13, N-[6-(1-Ethoxy-propyl)-2,4-dioxo-7-trifluoromethyl-1,4-dihydro-2H-quinazolin-3-yl]-methanesulfonamide] | Yes | –
11 | CC(OC1CCCC1)c1cc2c(=O)n(NS(C)(=O)=O)c(=O)[nH]c2cc1C(F)(F)F (stereo not drawn) [Compound A-14, N-[6-(1-Cyclopentyloxy-ethyl)-2,4-dioxo-7-trifluoromethyl-1,4-dihydro-2H-quinazolin-3-yl]-methanesulfonamide] | yes | –
12 | CCCC(O)c1cc2c(=O)n(NS(C)(=O)=O)c(=O)[nH]c2cc1C(F)(F)F (stereo not drawn) [Compound A-15, N-[6-(1-Hydroxy-butyl)-2,4-dioxo-7-trifluoromethyl-1,4-dihydro-2H-quinazolin-3-yl]-methanesulfonamide] | Yes | –
13 | COCCC(O)c1cc2c(=O)n(NS(C)(=O)=O)c(=O)[nH]c2cc1C(F)(F)F (stereo not drawn) [Compound A-18, N-[6-(1-Hydroxy-3-methoxy-propyl)-2,4-dioxo-7-trifluoromethyl-1,4-dihydro-2H-quinazolin-3-yl]-methanesulfonamide] | Yes | –
14 | CS(=O)(=O)Nn1c(=O)[nH]c2cc(C(F)(F)F)c(C3CCCO3)cc2c1=O (stereo not drawn) [Compound B-2, N-[2,4-Dioxo-6-(tetrahydro-furan-2-yl)-7-trifluoromethyl-1,4-dihydro-2H-quinazolin-3-yl]-methanesulfonamide] | Yes | –
15 | COCCn1nccc1-c1cc2c(=O)n(NS(C)(=O)=O)c(=O)[nH]c2cc1C(C)C [Compound C-1, N-{7-Isopropyl-6-[2-(2-methoxy-ethyl)-2H-pyrazol-3-yl]-2,4-dioxo-1,4-dihydro-2H-quinazolin-3-yl}-methanesulfonamide] | yes | MES-Test (1 h, po) protection (OF1 mice; @ 25 (mg/kg)): 40% @ 25
16 | CC(C)n1nccc1-c1cc2c(=O)n(NS(C)(=O)=O)c(=O)[nH]c2cc1C(F)(F)F [Compound C-2, N-[6-(2-Isopropyl-2H-pyrazol-3-yl)-2,4-dioxo-7-trifluoromethyl-1,4-dihydro-2H-quinazolin-3-yl]-methanesulfonamide] | Yes | –
17 | CC(C)n1nccc1-c1cc2c(=O)n(NS(C)(=O)=O)c(=O)[nH]c2cc1CF [Compound C-3, N-[7-Fluoromethyl-6-(2-isopropyl-2H-pyrazol-3-yl)-2,4-dioxo-1,4-dihydro-2H-quinazolin-3-yl]-methanesulfonamide] | Yes | –
18 | COCCn1nccc1-c1cc2c(=O)n(NS(C)(=O)=O)c(=O)[nH]c2cc1C(F)(F)F [Compound C-4, N-{6-[2-(2-Methoxy-ethyl)-2H-pyrazol-3-yl]-2,4-dioxo-7-trifluoromethyl-1,4-dihydro-2H-quinazolin-3-yl}-methanesulfonamide] | Yes | –
19 | CS(=O)(=O)Nn1c(=O)[nH]c2cc(C(F)(F)F)c(-c3ccnn3O)cc2c1=O [Compound C-5, N-[6-(2-Hydroxy-2H-pyrazol-3-yl)-2,4-dioxo-7-trifluoromethyl-1,4-dihydro-2H-quinazolin-3-yl]-methanesulfonamide] | Yes | –
20 | CCc1cc2[nH]c(=O)n(NS(C)(=O)=O)c(=O)c2cc1-c1ccnn1C(C)C [Compound C-6, N-[7-Ethyl-6-(2-isopropyl-2H-pyrazol-3-yl)-2,4-dioxo-1,4-dihydro-2H-quinazolin-3-yl]-methanesulfonamide] | yes | MES-Test (1 h, po) protection (OF1 mice; @ 50 (mg/kg)): 20% @ 50
21 | CC(C)c1cc2[nH]c(=O)n(NS(C)(=O)=O)c(=O)c2cc1-c1ccnn1C(C)C [Compound C-8, N-[7-Isopropyl-6-(2-isopropyl-2H-pyrazol-3-yl)-2,4-dioxo-1,4-dihydro-2H-quinazolin-3-yl]-methanesulfonamide] | yes | MES-Test (1 h, po) protection (OF1 mice; @ 50 (mg/kg)): 40% @ 50
22 | Cn1nccc1-c1cc2c(=O)n(NS(C)(=O)=O)c(=O)[nH]c2cc1C(F)F [Compound C-9, N-[7-Difluoromethyl-6-(2-methyl-2H-pyrazol-3-yl)-2,4-dioxo-1,4-dihydro-2H-quinazolin-3-yl]-methanesulfonamide] | Yes | –
23 | CC(C)n1nccc1-c1cc2c(=O)n(NS(C)(=O)=O)c(=O)[nH]c2cc1C(F)F [Compound C-10, N-[7-Difluoromethyl-6-(2-isopropyl-2H-pyrazol-3-yl)-2,4-dioxo-1,4-dihydro-2H-quinazolin-3-yl]-methanesulfonamide] | Yes | –
24 | CCc1cc2[nH]c(=O)n(NS(C)(=O)=O)c(=O)c2cc1-c1ccnn1C [Compound C-11, N-[7-Ethyl-6-(2-methyl-2H-pyrazol-3-yl)-2,4-dioxo-1,4-dihydro-2H-quinazolin-3-yl]-methanesulfonamide] | Yes | –
25 | CCc1cc2[nH]c(=O)n(NS(C)(=O)=O)c(=O)c2cc1-c1ccnn1CC [Compound C-12, N-[7-Ethyl-6-(2-ethyl-2H-pyrazol-3-yl)-2,4-dioxo-1,4-dihydro-2H-quinazolin-3-yl]-methanesulfonamide] | Yes | –
26 | Cn1nccc1-c1cc2c(=O)n(NS(C)(=O)=O)c(=O)[nH]c2cc1C(C)(F)F [Compound C-15, N-[7-(1,1-difluoro-ethyl)-6-(2-methyl-2H-pyrazol-3-yl)-2,4-dioxo-1,4-dihydro-2H-quinazolin-3-yl]-methanesulfonamide] | Yes | MES-Test (1 h, po) protection (OF1 mice; @ 20 (mg/kg)): 80% @ 20
27 | CC(C)n1nccc1-c1cc2c(=O)n(NS(C)(=O)=O)c(=O)[nH]c2cc1C(C)(F)F [Compound C-16, N-[7-(1,1-difluoro-ethyl)-6-(2-isopropyl-2H-pyrazol-3-yl)-2,4-dioxo-1,4-dihydro-2H-quinazolin-3-yl]-methanesulfonamide] | Yes | –
28 | CC(F)c1cc2[nH]c(=O)n(NS(C)(=O)=O)c(=O)c2cc1-c1ccnn1C(C)C (stereo not drawn) [Compound C-17, N-[7-(1-fluoro-ethyl)-6-(2-isopropyl-2H-pyrazol-3-yl)-2,4-dioxo-1,4-dihydro-2H-quinazolin-3-yl]-methanesulfonamide] | Yes | –
29 | Cn1nccc1-c1cc2c(=O)n(NS(C)(=O)=O)c(=O)[nH]c2cc1C(F)(F)F [Compound C-18, N-[6-(2-Methyl-2H-pyrazol-3-yl)-2,4-dioxo-7-trifluoromethyl-1,4-dihydro-2H-quinazolin-3-yl]-methanesulfonamide] | Yes | –

— patent US20140163050A1, “Use of 1H-quinazoline-2,4-diones” (priority 2011, published 2014)
